According to patent publication US10696615B2, “Prenylated hydroxystilbenes” (The University of Sydney, priority 2011, dated 2020):

Key:
Format in all cases: cell-based, human
RPMI-8226 = experiment: NCI in vitro cancer screen, Leukemia; conditions: RPMI-8226; for GI50 / CC50: Homo sapiens; for CC50: read-out: LC50 (the source's name)
SNB-19 = experiment: NCI in vitro cancer screen, CNS Cancer; conditions: SNB-19; for GI50 / CC50: Homo sapiens; for CC50: read-out: LC50 (the source's name)
UO-31 = experiment: NCI in vitro cancer screen, Renal Cancer; conditions: UO-31; for GI50 / CC50: Homo sapiens; for CC50: read-out: LC50 (the source's name)
DU-145 = experiment: NCI in vitro cancer screen, Prostate Cancer; conditions: DU-145; for GI50 / CC50: Homo sapiens; for CC50: read-out: LC50 (the source's name)
NCI-H23 = experiment: NCI in vitro cancer screen, Non-Small Cell Lung Cancer; conditions: NCI-H23; for GI50 / LC50: Homo sapiens
CCRF-CEM = experiment: NCI in vitro cancer screen, Leukemia; conditions: for GI50 / CC50: Homo sapiens; for CC50: read-out: LC50 (the source's name)
ADR-RES (NCI/ADR-RES) = experiment: NCI in vitro cancer screen, Ovarian Cancer; conditions: for TGI: ADR-RES; for GI50 / CC50: Homo sapiens, NCI/ADR-RES; for CC50: read-out: LC50 (the source's name)
CAKI-1 = experiment: NCI in vitro cancer screen, Renal Cancer; conditions: CAKI-1; for GI50 / CC50: Homo sapiens; for CC50: read-out: LC50 (the source's name)
HT29 = experiment: NCI in vitro cancer screen, Colon Cancer; conditions: HT29; for GI50 / CC50: Homo sapiens, HT-29; for CC50: read-out: LC50 (the source's name)
MCF7 = experiment: NCI in vitro cancer screen, Breast Cancer; conditions: MCF7; for GI50 / CC50: Homo sapiens; for CC50: read-out: LC50 (the source's name)
SK-MEL-2 = experiment: NCI in vitro cancer screen, Melanoma; conditions: SK-MEL-2; for GI50 / LC50: Homo sapiens
UACC-257 = experiment: NCI in vitro cancer screen, Melanoma; conditions: UACC-257; for GI50 / CC50: Homo sapiens; for CC50: read-out: LC50 (the source's name)
OVCAR-4 = experiment: NCI in vitro cancer screen, Ovarian Cancer; conditions: OVCAR-4; for GI50 / CC50: Homo sapiens; for CC50: read-out: LC50 (the source's name)
HCT-15 = experiment: NCI in vitro cancer screen, Colon Cancer; conditions: HCT-15; for GI50 / CC50: Homo sapiens; for CC50: read-out: LC50 (the source's name)
U251 = experiment: NCI in vitro cancer screen, CNS Cancer; conditions: U251; for GI50 / CC50: Homo sapiens, U-251; for CC50: read-out: LC50 (the source's name)
MDA-MB-468 = experiment: NCI in vitro cancer screen, Breast Cancer; conditions: MDA-MB-468; for GI50 / CC50: Homo sapiens; for CC50: read-out: LC50 (the source's name)
M14 = experiment: NCI in vitro cancer screen, Melanoma; conditions: M14; for GI50 / CC50: Homo sapiens; for CC50: read-out: LC50 (the source's name)
MALME-3M = experiment: NCI in vitro cancer screen, Melanoma; conditions: for GI50 / CC50: Homo sapiens, Malme-3M; for CC50: read-out: LC50 (the source's name); for TGI: MALME-3M
EKVX = experiment: NCI in vitro cancer screen, Non-Small Cell Lung Cancer; conditions: for GI50 / CC50: Homo sapiens; for CC50: read-out: LC50 (the source's name)
HCT-116 = experiment: NCI in vitro cancer screen, Colon Cancer; conditions: HCT-116; for GI50 / LC50 (concentration killing 50% of cells): Homo sapiens
ACHN = experiment: NCI in vitro cancer screen, Renal Cancer; conditions: for GI50 / CC50: Homo sapiens; for CC50: read-out: LC50 (the source's name)
HCC-2998 = experiment: NCI in vitro cancer screen, Colon Cancer; conditions: HCC-2998; for GI50 / CC50: Homo sapiens; for CC50: read-out: LC50 (the source's name)
NCI-H460 = experiment: NCI in vitro cancer screen, Non-Small Cell Lung Cancer; conditions: NCI-H460; for GI50 / CC50: Homo sapiens; for CC50: read-out: LC50 (the source's name)
[1] = tested on: MDA-MB-231 (MDA-MB-231/ATCC); experiment: NCI in vitro cancer screen, Breast Cancer; conditions: MDA-MB-231; for GI50 / CC50: Homo sapiens; for CC50: read-out: LC50 (the source's name)
COLO 205 = experiment: NCI in vitro cancer screen, Colon Cancer; conditions: COLO 205; for GI50 / CC50: Homo sapiens; for CC50: read-out: LC50 (the source's name)
NCI-H322M = experiment: NCI in vitro cancer screen, Non-Small Cell Lung Cancer; conditions: for GI50 / LC50 (50% lethal concentration): Homo sapiens
SR = experiment: NCI in vitro cancer screen, Leukemia; conditions: for GI50 / CC50: Homo sapiens; for CC50: read-out: LC50 (the source's name)
SK-MEL-28 = experiment: NCI in vitro cancer screen, Melanoma; conditions: SK-MEL-28; for GI50 / LC50: Homo sapiens

COc1cc(/C=C/c2cc(O)c(CC=C(C)C)c(O)c2)ccc1O [USYDS13, (E)-4-(3-methyl-2-buten-1-yl)-3,4′,5-trihydroxy-3′-methoxystilbene]
GI50 (RPMI-8226): 9.05 µM
CC50 (RPMI-8226): > 100 µM
TGI (RPMI-8226): 51.6 µM
GI50 (SNB-19): 8.02 µM
CC50 (SNB-19): 64.5 µM
TGI (SNB-19): 24.2 µM
GI50 (UO-31): 4.16 µM
CC50 (UO-31): > 100 µM
TGI (UO-31): 38.1 µM
TGI (DU-145): 31.6 µM
GI50 (DU-145): 6.82 µM
CC50 (DU-145): > 100 µM
GI50 (NCI-H23): 5.66 µM
LC50 (NCI-H23): > 100 µM
TGI (NCI-H23): 28.0 µM
TGI (CCRF-CEM): >100 µM
GI50 (CCRF-CEM): 6.56 µM
CC50 (CCRF-CEM): > 100 µM
TGI (ADR-RES (NCI/ADR-RES)): >100 µM
GI50 (ADR-RES (NCI/ADR-RES)): 4.41 µM
CC50 (ADR-RES (NCI/ADR-RES)): > 100 µM
TGI (CAKI-1): >100 µM
GI50 (CAKI-1): 5.9 µM
CC50 (CAKI-1): > 100 µM
TGI (HT29): 36.9 µM
GI50 (HT29): 17.8 µM
CC50 (HT29): 76.8 µM
GI50 (MCF7): 0.68 µM
CC50 (MCF7): 82.7 µM
TGI (MCF7): 19.9 µM
GI50 (SK-MEL-2): 3.09 µM
LC50 (SK-MEL-2): 40.2 µM
TGI (SK-MEL-2): 9.37 µM
GI50 (UACC-257): 5.35 µM
CC50 (UACC-257): 44 µM
TGI (UACC-257): 18.1 µM
GI50 (OVCAR-4): 9.68 µM
CC50 (OVCAR-4): > 100 µM
TGI (OVCAR-4): 74.8 µM
TGI (HCT-15): 20.5 µM
GI50 (HCT-15): 4.25 µM
CC50 (HCT-15): 84.5 µM
GI50 (U251): 5.47 µM
CC50 (U251): 57.6 µM
TGI (U251): 20.7 µM
GI50 (MDA-MB-468): 1.68 µM
CC50 (MDA-MB-468): > 100 µM
TGI (MDA-MB-468): 7.63 µM
GI50 (M14): 4.92 µM
CC50 (M14): 51.6 µM
TGI (M14): 18.5 µM
GI50 (MALME-3M): 5.53 µM
CC50 (MALME-3M): > 100 µM
TGI (MALME-3M): 32.1 µM
TGI (EKVX): 54.6 µM
GI50 (EKVX): 12.8 µM
CC50 (EKVX): > 100 µM
TGI (HCT-116): 15.6 µM
GI50 (HCT-116): 4.33 µM
LC50 (concentration killing 50% of cells) (HCT-116): 45.6 µM
TGI (ACHN): >100 µM
GI50 (ACHN): 5.11 µM
CC50 (ACHN): > 100 µM
TGI (HCC-2998): 30.6 µM
GI50 (HCC-2998): 11 µM
CC50 (HCC-2998): 85.3 µM
GI50 (NCI-H460): 3.09 µM
CC50 (NCI-H460): > 100 µM
TGI (NCI-H460): 15.6 µM
GI50 [1]: 1.63 µM
CC50 [1]: > 100 µM
TGI [1]: 7.82 µM
TGI (COLO 205): 28.9 µM
GI50 (COLO 205): 15.6 µM
CC50 (COLO 205): 53.8 µM
TGI (NCI-H322M): 28.5 µM
GI50 (NCI-H322M): 5.9 µM
LC50 (50% lethal concentration) (NCI-H322M): > 100 µM
TGI (SR): >100 µM
GI50 (SR): 2.8 µM
CC50 (SR): > 100 µM
GI50 (SK-MEL-28): 5.64 µM
LC50 (SK-MEL-28): 70.5 µM
TGI (SK-MEL-28): 22.5 µM

COc1cc(/C=C/c2cc(O)cc(OCC=C(C)C)c2)ccc1O [USYDS2, (E)-3-(3-methyl-2-butenyloxy)-4′,5-dihydroxy-3′-methoxystilbene]
GI50 (RPMI-8226): 4.32 µM
CC50 (RPMI-8226): > 100 µM
TGI (RPMI-8226): 52.8 µM
GI50 (SNB-19): 5.02 µM
CC50 (SNB-19): 53.6 µM
TGI (SNB-19): 20.4 µM
GI50 (UO-31): 2.6 µM
CC50 (UO-31): 48.9 µM
TGI (UO-31): 16.9 µM
TGI (DU-145): 12.5 µM
GI50 (DU-145): 3.05 µM
CC50 (DU-145): 37.8 µM
GI50 (NCI-H23): 2.89 µM
LC50 (NCI-H23): > 100 µM
TGI (NCI-H23): 23.6 µM
TGI (CCRF-CEM): >100 µM
GI50 (CCRF-CEM): 5.06 µM
CC50 (CCRF-CEM): > 100 µM
TGI (ADR-RES (NCI/ADR-RES)): 4.95 µM
GI50 (ADR-RES (NCI/ADR-RES)): 0.4 µM
CC50 (ADR-RES (NCI/ADR-RES)): > 100 µM
TGI (CAKI-1): >100 µM
GI50 (CAKI-1): 6.13 µM
CC50 (CAKI-1): > 100 µM
TGI (HT29): 32.2 µM
GI50 (HT29): 17.4 µM
CC50 (HT29): 59.6 µM
GI50 (MCF7): 1.24 µM
CC50 (MCF7): 41 µM
TGI (MCF7): 15.0 µM
GI50 (SK-MEL-2): 1.25 µM
LC50 (SK-MEL-2): 41.6 µM
TGI (SK-MEL-2): 9.59 µM
GI50 (UACC-257): 7.89 µM
CC50 (UACC-257): 46 µM
TGI (UACC-257): 20.6 µM
GI50 (OVCAR-4): 5.34 µM
CC50 (OVCAR-4): > 100 µM
TGI (OVCAR-4): 28.0 µM
TGI (HCT-15): 17.8 µM
GI50 (HCT-15): 0.76 µM
CC50 (HCT-15): 97.3 µM
GI50 (U251): 2.96 µM
CC50 (U251): 41 µM
TGI (U251): 14.7 µM
GI50 (MDA-MB-468): 2.72 µM
CC50 (MDA-MB-468): 36.8 µM
TGI (MDA-MB-468): 9.41 µM
GI50 (M14): 0.53 µM
CC50 (M14): 49.4 µM
TGI (M14): 15.4 µM
GI50 (MALME-3M): 1.88 µM
CC50 (MALME-3M): 94.9 µM
TGI (MALME-3M): 26.2 µM
TGI (EKVX): 25.2 µM
GI50 (EKVX): 9.04 µM
CC50 (EKVX): 66.4 µM
TGI (HCT-116): 11.9 µM
GI50 (HCT-116): 2.09 µM
LC50 (concentration killing 50% of cells) (HCT-116): 40 µM
TGI (ACHN): 17.5 µM
GI50 (ACHN): 3.76 µM
CC50 (ACHN): 52.1 µM
TGI (HCC-2998): 17.3 µM
GI50 (HCC-2998): 4.61 µM
CC50 (HCC-2998): 46.4 µM
GI50 (NCI-H460): 2.47 µM
CC50 (NCI-H460): 58.7 µM
TGI (NCI-H460): 10.9 µM
GI50 [1]: 0.25 µM
CC50 [1]: 15.7 µM
TGI [1]: 2.10 µM
TGI (COLO 205): 31.7 µM
GI50 (COLO 205): 17.3 µM
CC50 (COLO 205): 57.9 µM
TGI (NCI-H322M): 22.7 µM
GI50 (NCI-H322M): 9.64 µM
LC50 (50% lethal concentration) (NCI-H322M): 52.3 µM
TGI (SR): >100 µM
GI50 (SR): 0.54 µM
CC50 (SR): > 100 µM
GI50 (SK-MEL-28): 5.04 µM
LC50 (SK-MEL-28): 46.7 µM
TGI (SK-MEL-28): 19.4 µM
